Experimental data taken from US20250332096A1, “BEVERAGE FORMULATION AND METHOD OF PROMOTING CELLULAR HYDRATION BY ENHANCING INTRACELLULAR PERMEATION” (Eastpond Laboratories Limited, priority 2024, published 2025).

How the values were obtained:
[1] = Density measurements of test solutions; format: physicochemical; conditions: Tap water
Protocol: The current study further manifests the density measurements in a cyclodextrin concentration dependent manner.
Water samples used were bottled water and tap water; wherein the tap water comprises the following impurities and properties: Free active chlorine (0.18 mg/1), Chloride (24 mg/1), Iron (6 μg/1), Manganese (2 μg/1), Nitrate (9 mg/1), Nitrite (<0.03 mg/1), Ammonium (<0.04 mg/1), Hardness of water (122 mg/l CaO), Conductivity (442 μS/cm) and pH 8. Purified water was produced by removal of dissolved ions by Merck/Millipore Synergy® Water Purification System at Cyclolab. The water quality produced Type 1 water (18.2 MΩ·cm at 25° C. ultrapure water) from pretreated water.
(§1) 1:1 mol/mol stoichiometry complexes were prepared for the experiment. Nicotinic acid/alpha-CD complex was prepared by dissolving 11.22 g nicotinic acid and 98.63 g alpha-CD (89.66 g on dry basis) in 700 ml purified water. Nicotinamide/alpha-CD complex was prepared by dissolving 5.57 g nicotinamide and 49.3 g alpha-CD (44.4 g on dry basis) in 350 ml purified water and L-arginine/alpha-CD complex was prepared by dissolving 15.18 g L-arginine and 94.26 g alpha-CD (85.69 g on dry basis) in 700 ml purified water. Further, for all the three complexes, the liquid was frozen in dry ice bath and lyophilized. The dry lyophilizate was ground and sieved.
(§2) Clarity, pH, conductivity, density, viscosity, turbidity, surface tension and osmolality were determined in solutions prepared with purified water. […]
However, it may not be established exactly which ionic species (Mg2+, Ca2+, Na+) causes this perturbation.

[2] = Osmolality of test solutions; format: physicochemical; conditions: purified water
Protocol: as §1, §2

[3] = Visual inspection (clarity) of test solutions; format: physicochemical; conditions: purified water
Protocol: as §1, §2

C. elegans = C. elegans lifespan Test B (Example 6); format: in vivo
Protocol: C. elegans study performed for the present disclosure is a follow-up and repetition of the observations carried out earlier (referred as Test A here). The results of the current C. elegans study (Test B) were recorded with higher number of animals compared to the Test A (50 worms per treated groups versus 130 worms per groups). Nematodes were maintained and propagated on Nematode Growth Medium—(NGM) containing plates and fed with Escherichia coli OP50 bacteria. The C. elegans strain used in this study is Bristol (N2) as wild-type. FIG. 21, illustrates the lifespan of control and alpha-cyclodextrin-treated worms. The control C. elegans lived on a medium made with tap water. The treated worms were maintained on culture media made with 0.1% alpha-cyclodextrin, 0.1% alpha-CD/nicotinic acid and 0.1% alpha-CD/arginine complex containing tap water.

[4] = test system: Wheat seeds (Triticum aestivum); experiment: Wheat seed germination; format: in vivo; conditions: 0.5% w/w in USA I water
Protocol: Wheat seeds (Triticum aestivum) were germinated using USA I, USA II, and BP I waters described for Example 2. Germination rate using un-supplemented (control) water was compared to that with the same water variously supplemented with a cyclodextrin component, and/or a bioactive agent, as an active component of cellular hydration. For each condition, ten seeds were placed in continuous water contact in a Petri-type dish kept at 25 C in 12 hr light/dark cycles. Photometric images were recorded on days 1 to 6 after seeding. The percentage of seeds germinated was calculated and compared as a function of time and of the applied additive concentrations.
Water samples for seed germination were used alone with no additive, or containing cyclodextrins, or containing clathrate inclusion complexes of cyclodextrin with L-arginine or with nicotinamide (both obtained from Sigma Chemical Co.; St. Louis, MO), or with L-carnitine (from Lonza AG; Switzerland). […] Additive solutions were prepared fresh on the day of germination start.
Parent cyclodextrins α-cyclodextrin (ACD), β-cyclodextrin (BCD), and γ-cyclodextrin (GCD), were obtained from Wacker Chemie (Munich, Germany). The following derivatized cyclodextrins were obtained from Cyclolab Ltd. (Budapest, Hungary): hydroxypropylated-beta-cyclodextrin (DS-3)(HPBCD), carboxymethylated-β-cyclodextrin (DS-3.5)(CMBCD), 2-hydroxy-3-N,N,N-trimethylamino)propyl-β-cyclodextrin chloride (DS-3.6)(QABCD).
Germination kinetics in control and additive-modified water under identical conditions were quantified as the percentage of the seeds having a sprout. Each determination consisted of 100 seeds for each parameter. Results are reported in Table 5, below, and in FIGS. 11-13. • A) Cyclodextrin/L-Arg Inclusion Complex Increases Seed Germination.

[5] = Turbidity of test solutions; format: physicochemical; conditions: purified water (reference), 0.05%
Protocol: as §1, §2

[6] = Conductivity of test solutions; format: physicochemical; conditions: purified water
Protocol: as §1, §2

Density (at 22 C.) ([1]; 0.05%): 0.9992 ± 0.007 g/cm³ | Density (at 22 C.) ([1]; 0.10%): 0.9994 ± 0.004 g/cm³ | Density (at 22 C.) ([1]; 1.00%): 1.002 ± 0.007 g/cm³ | Density (at 22 C.) ([1]; 2.00%): 1.009 ± 0.005 g/cm³ | Osmolality ([2]; 0.05%): 0 mOsm/kg | Osmolality ([2]; 0.10%): 2 mOsm/kg | Osmolality ([2]; 2.00%): 18 mOsm/kg | Visual Inspection ([3]; 0.05%): clear | Visual Inspection ([3]; 0.10%): clear | Visual Inspection ([3]; 1.00%): clear | Visual Inspection ([3]; 2.00%): clear | Turbidity (Abs, λ = 410 nm) [5]: 0.003 Abs | Conductivity ([6]; 0.05%): 35.3 μS · cm^−1 | Conductivity ([6]; 0.10%): 39.0 μS · cm^−1
SMILES: OC[C@H]1O[C@@H]2O[C@H]3[C@H](O)[C@@H](O)[C@@H](O[C@H]4[C@H](O)[C@@H](O)[C@@H](O[C@H]5[C@H](O)[C@@H](O)[C@@H](O[C@H]6[C@H](O)[C@@H](O)[C@@H](O[C@H]7[C@H](O)[C@@H](O)[C@@H](O[C@H]1[C@H](O)[C@H]2O)O[C@@H]7CO)O[C@@H]6CO)O[C@@H]5CO)O[C@@H]4CO)O[C@@H]3CO [Alpha Cyclodextrin, α-cyclodextrin]
Fraction of worms alive (C. elegans; Test B, day 15, 0.1%, 130 worms per group, tap water media): 20% | effect on lifespan (C. elegans; all three studied concentrations (0.05, 0.1, 0.5%)): significant | average lifespan (C. elegans; control animals 12.33 days): 13.25 days | wheat seed germination, percentage of the seeds having a sprout ([4]; day 0): 0% | wheat seed germination, percentage of the seeds having a sprout ([4]; day 1): 11% | wheat seed germination, percentage of the seeds having a sprout ([4]; day 2): 18% | wheat seed germination, percentage of the seeds having a sprout ([4]; day 3): 68% | wheat seed germination, percentage of the seeds having a sprout ([4]; day 4): 92%
